Source: paper PMC6271085, “Synthesis and Cytotoxic Evaluation of a Series of 2-Amino-Naphthoquinones against Human Cancer Cells” (Molecules, 2014)
Values after ≈ are worked out from the molar mass of the structure shown. Values joined by “and” are separate entries in the source; they are usually repeats but may differ in a detail not shown here. Identical values can stand only once. Like-named read-outs stand apart in the source and are kept apart here.

Columns and labels:
[1] = test system: SF-295 (glioblastoma) cells; experiment: MTT cytotoxicity assay, SF-295; format: cell-based; conditions: Homo sapiens; for inhibition at 5 µg/mL: SF-295, 5 µg/mL, 72 h, MTT, read-out: Percentage of inhibition of cell growth (GI%), average; for IC50: SF-295, 72 h, SF-295, 72h exposure
Source text: (§1) This experiment evaluated the cytotoxicity of aminonaphthoquinones (ANPQs) against human cancer cells, in vitro. This analysis is part of an initial screening for determination of the potential antitumor of these samples. The human cancer cell strains used were SF-295 (glioblastoma-human), MDAMB-435 (melanoma), HCT-8 (colon), HCT-116 (colon), HL-60 (leukemia), OVCAR-8 (ovarian cancer), NCI-H358M (human bronchoalveolar lung carcinoma) and PC3-M (highly metastatic prostate cancer cell line). All cancer cells were provided by the National Cancer Institute (Rockville, MD, USA) and were cultured in RPMI 1640 supplemented with 10% fetal bovine serum and 1% antibiotics, maintained at 37 °C and atmosphere containing 5% CO2. The peripheral blood mononuclear cells (PBMC) were isolated by gradient of density (Ficoll-Hypaque) and cultivated in RPMI 1640 medium, supplemented with bovine foetal serum (20%), antibiotic (1%) and phytohemagglutinin (4%). The cells were maintained at 37 °C and atmosphere containing 5% CO2.
(§2) The different samples of ANPQs were diluted in pure sterile DMSO. The substances were tested at a concentration of 5 µg·mL^−1. In order to determine the IC50 the substances were tested at increasing concentrations in serial dilutions (5–0.010 µg·mL^−1).
(§3) Analysis of cytotoxicity by the MTT method has been used in the screening program at the National Cancer Institute of the United States (NCI), which tests over 10,000 samples per year. It is a rapid, sensitive and inexpensive test. It was first described by Mosman as having the ability to analyze the viability and the metabolic state of cells. It is a colorimetric analysis based on conversion of the salt 3-(4,5-dimethyl-2-thiazole)-2,5-diphenyl-2H-tetrazolium bromide (MTT) to formazan-blue by the mitochondrial enzymes found only in metabolically active cells. The study of the cytotoxicity by MTT method allows easily defining the cytotoxicity but not the mechanism of action.
(§4) The cells were plated at a concentration of 0.1 × 10^6 cell mL^−1 to OVCAR-8, NCI-H358M, PC3-M, SF-295 and MDA-MB435 strains, 0.7 × 10^5 cell mL^−1 to HCT-8 and HCT-116 strains, 0.3 × 10^6 to HL-60 strain, 1.0 × 10^6 cell mL^−1 to PBMC. The plates were incubated for 72 h at 5% CO2 at 37 °C. After, they were centrifuged and the supernatant removed. Then the solution of MTT (tetrazolium salt, 150 µL) was added, and the plates were incubated for 3 h. The absorbance was read after dissolving the precipitate with 150 µL of pure DMSO in a spectrophotometer plate at 595 nm.

[2] = test system: HCT-8 (colon) cells; experiment: MTT cytotoxicity assay, HCT-8; format: cell-based; conditions: Homo sapiens; for inhibition at 5 µg/mL: HCT-8, 5 µg/mL, 72 h, MTT, read-out: Percentage of inhibition of cell growth (GI%), average; for IC50: HCT-8, 72 h, HCT-8, 72h exposure
Source text: as §1, §2, §3, §4

[3] = test system: MDAMB-435 cells; experiment: MTT cytotoxicity assay, MDAMB-435; format: cell-based; conditions: Homo sapiens; for inhibition at 5 µg/mL: MDA-MB-435, MDAMB-435, 5 µg/mL, 72 h, MTT, read-out: Percentage of inhibition of cell growth (GI%), average; for IC50: MDA-MB-435, 72 h, MDAMB-435, 72h exposure
Source text: as §1, §2, §3, §4

[4] = test system: OVCAR-8 (ovarian cancer) cells; experiment: MTT cytotoxicity assay, OVCAR-8; format: cell-based; conditions: Homo sapiens; OVCAR-8, 72h exposure
Source text: as §1, §2, §3, §4

[5] = MTT cytotoxicity assay, PBMC; format: cell-based; conditions: peripheral blood mononuclear cells (PBMC); PBMC normal cells, 72h exposure
Source text: as §1, §2, §3, §4

[6] = test system: HCT-116 (colon) cells; experiment: MTT cytotoxicity assay, HCT-116; format: cell-based; conditions: Homo sapiens; HCT-116, 72h exposure
Source text: as §1, §2, §3, §4

[7] = test system: NCI-H358M (bronchoalveolar lung carcinoma) cells; experiment: MTT cytotoxicity assay, NCI-H358M; format: cell-based; conditions: Homo sapiens, 72h exposure
Source text: as §1, §2, §3, §4

[8] = test system: PC3-M (prostate) cells; experiment: MTT cytotoxicity assay, PC3-M; format: cell-based; conditions: Homo sapiens, PC-3M, 72 h, 72h exposure
Source text: as §1, §2, §3, §4

[9] = test system: HL-60 (leukemia) cells; experiment: MTT cytotoxicity assay, HL-60; format: cell-based; conditions: Homo sapiens; HL-60, 72h exposure
Source text: as §1, §2, §3, §4

[10] = test system: HL-60 (leukemia) cells; set-up: method as in PMID 16042338; conditions: cited from earlier work
[11] = test system: HCT-8 (colon) cells; set-up: method as in PMID 16042338; conditions: cited from earlier work

Compound	inhibition at 5 µg/mL [1] [%]	inhibition at 5 µg/mL [2] [%]	inhibition at 5 µg/mL [3] [%]	IC50 [4]	IC50 [1]	IC50 at 72 h [5]	IC50 [6]	IC50 [7]	IC50 [8]	IC50 [2]	IC50 [3]	IC50 [9]	melting point	IC50 [10] [µM]	IC50 [11] [mg/L]
O=C(O)CCCNC1=CC(=O)c2ccccc2C1=O [compound 11, 4-(1,4-Dioxo-1,4-dihydronaphthalen-2-ylamino)butanoic acid]	61.2	61.4	11.1												
C[C@H](NC1=CC(=O)c2ccccc2C1=O)C(=O)O [compound 5, N-(1,4-Dioxo-1,4-dihydronaphthalen-2-yl)-L-alanine]	83.8	84.1	100	2.36 µg/mL and 9.61 µM	2.56 µM	7.34 µg/mL and 29.9 µM	1.11 µg/mL and 4.52 µM	0.9 µg/mL and 3.36 µM	1.61 mg/L (≈ 6.57 µM)	3.38 µM	1.99 µM	1.05 µg/mL and 4.27 µM			
CCOC(=O)[C@H](C)NC1=CC(=O)c2ccccc2C1=O [compound 9, Ethyl [(S) 2-(1,4-dioxo-1,4-dihydronaphthalen-2-ylamino)] propanoate]	75.1	75.4	100	1.88 µg/mL and 6.87 µM	1.68 µg/mL and 6.13 µM	17.6 µg/mL and 64.3 µM	3.11 µg/mL and 11.4 µM	0.98 µg/mL and 3.58 µM	2.62 µg/mL and 9.57 µM	1.33 µg/mL and 4.86 µM	1.18 µg/mL and 4.31 µM	1.74 µg/mL and 6.35 µM	65 to 68 °C		
O=C1C=C(N[C@@H](Cc2ccccc2)C(=O)O)C(=O)c2ccccc21 [compound 6, N-(1,4-Dioxo-1,4-dihydronaphthalen-2-yl)-L-phenylalanine]	86.1	86.1	100	1.87 µg/mL and 5.81 µM	0.65 µg/mL and 2.01 µM	12.2 µg/mL and 37.8 µM	2.15 µg/mL and 6.67 µM	0.82 µg/mL and 2.54 µM	1.7 µg/mL and 5.28 µM	1.59 µg/mL and 4.94 µM	1.46 µg/mL and 4.53 µM	1.31 µg/mL and 4.07 µM			
COc1cccc2c1C(=O)c1c(O)c3c(c(O)c1C2=O)C[C@@](O)(C(=O)CO)C[C@@H]3O[C@H]1C[C@H](N)[C@H](O)[C@H](C)O1 [Dox, Doxorubicin, reference compound]				0.26 mg/L (≈ 0.478 µM)	0.23 mg/L	0.23 µg/mL and 420 nM	0.01 µg/mL and 20 nM	0.9 µg/mL and 1.65 µM	0.2 µg/mL and 360 nM	0.07 µg/mL and 130 nM	0.48 µg/mL and 830 nM	0.02 µg/mL and 30 nM			
CCOC(=O)CCNC1=CC(=O)c2ccccc2C1=O [compound 8, Ethyl 3N-(1,4-dioxo-1,4-dihydronaphthalen-2-yl)propanoate]	32.7	28.2	11.7										120 to 122 °C		
O=C(O)CCNC1=CC(=O)c2ccccc2C1=O [compound 3, 3N-(1,4-Dioxo-1,4-dihydronaphthalen-2-yl)propanoic acid]	56	56	26.4										198 to 200 °C		
O=C1C=C(N2CCC[C@H]2C(=O)O)C(=O)c2ccccc21 [compound 4, N-(1,4-Dioxo-1,4-dihydronaphthalen-2-yl)-L-proline]	59.3	59.1	36.7										164 to 167 °C (dec.)		
O=C(O)CNC1=CC(=O)c2ccccc2C1=O [compound 2, 2N-(1,4-Dioxo-1,4-dihydronaphthalen-2-yl)acetic acid]	81.1	81.7	100	3.89 µg/mL and 16.8 µM	0.57 µg/mL and 2.46 µM	5.51 µg/mL and 23.8 µM	1.31 µg/mL and 5.66 µM	> 5 µg/mL and > 21.6 µM	> 5 µg/mL and > 21.6 µM	0.89 µg/mL and 3.84 µM	1.21 µg/mL and 5.23 µM	0.7 µg/mL and 3.02 µM			
Cc1cc(=O)c2c(O)c([C@@H]3O[C@H](CO)[C@@H](O)[C@H](O)[C@H]3O)c(O)cc2o1 [biflorin]														1.95	0.88 (≈ 2.48 µM)
CCOC(=O)CCCNC1=CC(=O)c2ccccc2C1=O [compound 10, Ethyl 4-(1,4-dioxo-1,4-dihydronaphthalen-2-ylamino)butanoate]	49.2	49.6	59.1												
CCOC(=O)CNC1=CC(=O)c2ccccc2C1=O [compound 7, Ethyl 2N-(1,4-dioxo-1,4-dihydronaphthalen-2-yl)acetate]	99.5	99.5	100	2 µg/mL and 7.7 µM	0.83 µg/mL and 3.19 µM	9 µg/mL and 34.7 µM	2.13 µg/mL and 8.2 µM	0.64 µg/mL and 2.46 µM	1.63 µg/mL and 6.28 µM	1.84 µg/mL and 7.09 µM	1.33 µg/mL and 5.12 µM	1.24 µg/mL and 4.77 µM	93 to 95 °C		
